Columns and labels:
male dd mice = assay: Acute Toxicity Test (oral, mice); format: in vivo; conditions: oral 300 mg/kg, mortality observed seven days after administration
Description: Test compounds (300 mg/kg) were orally administered to male dd mice weighing 20±1 g (each group consists of three animals). Minimum lethal dose (MLD) was determined by observing mortality seven days after the administration.

steroid 5α-reductase = assay: Inhibition effects on steroid 5α-reductase activity (rat prostate enzyme, [4-14C]-testosterone); format: biochemical, male rats; conditions: pH 6.5, 37° C., 20 minutes
Description: The measurements of inhibition effects of test compounds on steroid 5α-reductase activity were performed according to the method described by Liang et al. [J. Biol. Chem., 259, 734 (1984)] as follows.
The prostates from male rats were homogenated in three tissue volumes of 20 mM sodium phosphate buffer (pH 6.5; containing 0.32M sucrose and 1 mM dithiothreitol). The homogenate was centrifuged at 140,000 X g for one hour. The precipitate was suspended in the buffer described above and the suspension was centrifuged at 140,000 X g for one hour. The precipitate was resuspended in the buffer described above and the solution (30-50 mg protein/ml) was used as enzyme in following assay.
[4-^14 C]-testosterone (1.5 nmol), NADPH (75 nmol), the enzyme (1 mg protein) and test compound in a total volume of 0.5 ml of 40 mM sodium phosphate buffer [pH 6.5, containing 1 mM dithiothreitol] was incubated at 37° C. After 20 minutes the enzyme activity was stopped by the addition of 2 ml of ethyl acetate. The mixture was then centrifuged at 1,000 g, for 5 minutes. The ethyl acetate layer was transferred to another tube and evaporated to dryness. The steroids were taken up in 50 μl of ethyl acetate and separated by thin layer chromatography (TLC) on silica gel in a developing solvent (ethyl acetate: cyclohexane=1:1). The radioactivity of testosterone and dihydrotestosterone on the TLC plate was measured by a TLC scanner.

| Structure (SMILES) | Acute toxicity (MLD), minimum lethal dose (male dd mice) [mg/kg] | inhibition rate (%), 10^-7 M (steroid 5α-reductase) [%] |
| --- | --- | --- |
| CCCCC(c1ccccc1)n1ccc2cc(/C(C)=C/C(=O)Nc3ccccc3OCCCC(=O)O)ccc21 (stereo not drawn) [Compound 42, 4-{2-[3-[1-(α-butylbenzyl)indol-5-yl]isocrotonoylamino]phenoxy}butyric acid] | > 300 | 89 |
| CCCCCC(c1ccccc1)n1ccc2cc(/C(C)=C/C(=O)Nc3ccccc3OCCCC(=O)O)ccc21 (stereo not drawn) [Compound 43, 4-{2-[3-[1-(α-pentylbenzyl)indol-5-yl]isocrotonoylamino]phenoxy}butyric acid] | > 300 | 74 |
| C/C(=C\C(=O)Nc1ccccc1OCCCC(=O)O)c1ccc2c(ccn2C(c2ccccc2)C(C)C)c1 (stereo not drawn) [Compound 44, 4-{2-[3-[1-[α-(2-methylethyl)benzyl]indol-5-yl]isocrotonoylamino]phenoxy}butyric acid] | > 300 | 78 |
| C/C(=C\C(=O)Nc1ccccc1OCCCC(=O)O)c1ccc2c(ccn2C2CCCc3ccccc32)c1 (centres unmarked) [Compound 45, 4-{2-[3-[1-(1,2,3,4-tetrahydro-1-naphthyl)indol-5-yl]isocrtonoylamino]phenoxy}butyric acid] | > 300 | 77 |
| C/C(=C\C(=O)Nc1ccccc1OCCCC(=O)O)c1ccc2c(ccn2C(c2ccccc2)c2ccccc2C)c1 (centres unmarked) [Compound 52] | > 300 | 90 |
| C/C(=C\C(=O)Nc1ccccc1OCCCC(=O)O)c1ccc2c(ccn2C(c2ccccc2)c2ccc(C)cc2)c1 (centres unmarked) [Compound 53] | > 300 | 84 |
| C/C(=C\C(=O)Nc1ccccc1OCCCC(=O)O)c1ccc2c(ccn2C(c2ccc(C)cc2)c2ccc(C)cc2)c1 [Compound 54, 4-{2-[3-[1-(4,4'-dimethylbenzhydryl)indol-5-yl]isocrotonoylamino]phenoxy}butyric acid] | > 300 | 89 |

From patent US5239083A, “Indole derivatives which inhibit steroid 5α reductase” (Kyowa Hakko Kogyo Co., Ltd., priority 1991, dated 1993)
